Test results published in US8841276B2, “Fulvene and fulvalene analogs and their use in treating cancers” (Emory University, priority 2007, dated 2014).

How the values were obtained:
[1] = molecular target: T1, Nox2 enzyme (Homo sapiens, UniProt P04839); test: Inhibition of Nox2 enzyme: H2O2 production in PMA-stimulated Cos-phox cells (homovanillic acid assay); type: cell-based; details: 1 μM, 5 μM, or 20 μM, FIG. 1
T1 construct: expressed in transfected cells; host or cells: Cos-phox cells (COS-7 derived, per the cited Price et al. 2002; own knowledge)
T1 sequence (P04839 2-570 limits assumed): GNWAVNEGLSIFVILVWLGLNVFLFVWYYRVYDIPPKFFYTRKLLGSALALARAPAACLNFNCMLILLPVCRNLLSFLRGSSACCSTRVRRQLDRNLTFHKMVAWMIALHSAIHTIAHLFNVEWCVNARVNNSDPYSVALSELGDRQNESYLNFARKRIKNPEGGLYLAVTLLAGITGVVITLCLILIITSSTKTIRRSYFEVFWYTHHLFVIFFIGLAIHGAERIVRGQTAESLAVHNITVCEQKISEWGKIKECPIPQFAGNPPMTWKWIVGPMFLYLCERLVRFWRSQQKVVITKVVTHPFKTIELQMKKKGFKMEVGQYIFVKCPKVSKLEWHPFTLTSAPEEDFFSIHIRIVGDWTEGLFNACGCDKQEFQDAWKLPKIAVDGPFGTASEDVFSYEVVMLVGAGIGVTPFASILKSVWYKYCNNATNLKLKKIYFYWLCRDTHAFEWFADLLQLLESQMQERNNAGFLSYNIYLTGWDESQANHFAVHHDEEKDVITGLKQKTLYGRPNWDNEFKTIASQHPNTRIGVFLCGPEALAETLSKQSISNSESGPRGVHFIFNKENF
T1 sequence (P13498 2-195 partner limits assumed): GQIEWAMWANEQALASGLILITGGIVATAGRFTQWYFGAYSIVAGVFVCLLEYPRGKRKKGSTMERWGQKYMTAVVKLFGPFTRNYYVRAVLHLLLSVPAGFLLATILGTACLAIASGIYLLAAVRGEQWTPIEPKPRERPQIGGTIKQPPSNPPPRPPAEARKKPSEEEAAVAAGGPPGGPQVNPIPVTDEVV
Description: Various test compounds were examined for activity against Nox2 enzyme by determining hydrogen peroxide (H2O2) production in phorbol 12-myristate 13-acetate (PMA)-stimulated Cos-phox cells treated with different concentrations of vehicle control or a test compound listed in Table 1.
Cos-phox cells have been described previously in Price et al., Blood, 99: 2653-61 (2002), which is incorporated herein by reference.
H2O2 release was measured using the homovanillic acid assay as described previously in Martyn et al., Cellular Signalling, 18:69-82 (2006) and Perry et al., J. Invest. Dermatol., 126:2316-22 (2006), which are incorporated herein by reference. Briefly, 1.5-1.75×10^5 cells/well of a 12-well plate were seeded with Cos-phox cells. The following day, cells were washed once with Hank's balanced salt solution, stimulated with […] phorbol 12-myristate 13-acetate (PMA), and then preincubated for 15 minutes with either vehicle control or different concentrations (i.e., 1 μM, 5 μM, or 20 μM) of test compound no. 8, 10, 15, 16, 17, or 18 in 1 ml of media. The cells were then washed once with Hank's balanced salt solution. Vehicle control or different concentrations of test compound no. […] Fluorescence was read on a BioTek Synergy HT (BioTek Instruments Inc., Winooski, Vt., CA) with an excitation of 320 nm and emission of 440 nm. […]

[2] = test system: light-induced retinal function loss; design: species or system Balb-C mice; details: mouse, in vivo
Description: Balb-C mice were exposed to dim (20 lux) or bright (10,000 lux) white light for 6 hours. Mice were injected with Fulvene-5, a triphenylmethane that inhibits NADPH oxidase, dissolved in vehicle (intralipid-DMSO) or vehicle alone. Intraperitoneal injections were given daily for two weeks. Electroretinograms (ERGs) were taken 0, 7, and 14 days following light exposure. Mice were exposed to either dim light (control) or bright light of an intensity that causes retinal degeneration (Light Induced Retinal Degeneration; LIRD). This is a classic rodent model of retinal degeneration. For each lighting condition, half the animals were injected with vehicle and the other half were injected with Fulvene 5. Electroretinograms (ERGs) of the treated mice were measured at one week post-exposure. An ERG is a measure of the change in electrical potential across the eyeball in response to a flash of light, and is used as an indication of retinal function.

Row | Suppression of ERG b-wave amplitude [2] | SMILES | Inhibition of Nox2 enzyme (production of H2O2 relative to untreated control) [1] | Effect of bright light exposure on retinal function as measured by ERG ([2]; ip)
1 |  | CN(C)C=C1C=CC=C1 [compound 8] | inhibited Nox2 enzyme in a dose-dependent manner | 
2 | no suppression of ERG amplitude | Cc1[nH]cnc1C=C1C=CC=C1 [Test compound 10, 4-(cyclopenta-2,4-dienylidinemethyl)-5-methyl-1H-imidazole] |  | precluded the damaging effects of bright light exposure on retinal function
